Assay results published in ChEMBL document CHEMBL1201861, “Genomics of Drug Sensitity in Cancer screening data, Wellcome Trust Sanger Institute”.

System: COR-L88;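 also: growth inhibition of COR-L88 cells, read out with a cell viability assay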
Test: cells
Assay type: functional, cell-based, Homo sapiens
Conditions: Homo sapiens, COR-L88
Description: SANGER: Inhibition of human COR-L88 cell growth in a cell viability assay.

Structure (SMILES) | IC50
Cc1cn(-c2cc(NC(=O)c3ccc(C)c(Nc4nccc(-c5cccnc5)n4)c3)cc(C(F)(F)F)c2)cn1 [NILOTINIB] | > 2000 nM

System: LU-134-A
Test: cells
Assay type: functional, cell-based, Homo sapiens
Conditions: Homo sapiens, LU-134-A
Description: SANGER: Inhibition of human LU-134-A cell growth in a cell viability assay.

Structure (SMILES) | IC50
Cc1cn(-c2cc(NC(=O)c3ccc(C)c(Nc4nccc(-c5cccnc5)n4)c3)cc(C(F)(F)F)c2)cn1 [NILOTINIB] | > 2000 nM

System: A388;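 also: growth inhibition of human A388 cells, read out with a cell viability assay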
Test: cells
Assay type: functional, cell-based, Homo sapiens
Conditions: Homo sapiens, A388
Description: SANGER: Inhibition of human A388 cell growth in a cell viability assay.

Structure (SMILES) | IC50
Cc1cn(-c2cc(NC(=O)c3ccc(C)c(Nc4nccc(-c5cccnc5)n4)c3)cc(C(F)(F)F)c2)cn1 [NILOTINIB] | > 2000 nM

System: A4-Fuk;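 also: growth inhibition of A4-Fuk cells, read out by a cell viability assay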
Test: cells
Assay type: functional, cell-based, Homo sapiens
Conditions: Homo sapiens, A4-Fuk
Description: SANGER: Inhibition of human A4-Fuk cell growth in a cell viability assay.

Structure (SMILES) | IC50
Cc1cn(-c2cc(NC(=O)c3ccc(C)c(Nc4nccc(-c5cccnc5)n4)c3)cc(C(F)(F)F)c2)cn1 [NILOTINIB] | > 2000 nM

System: MMAC-SF;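 also: growth inhibition of human MMAC-SF cells, read out with a cell viability assay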
Test: cells
Assay type: functional, cell-based, Homo sapiens
Conditions: Homo sapiens, MMAC-SF
Description: SANGER: Inhibition of human MMAC-SF cell growth in a cell viability assay.

Structure (SMILES) | IC50
Cc1cn(-c2cc(NC(=O)c3ccc(C)c(Nc4nccc(-c5cccnc5)n4)c3)cc(C(F)(F)F)c2)cn1 [NILOTINIB] | > 2000 nM

System: MEG-01;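 also: growth inhibition of MEG-01 cells, read out by a cell viability assay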
Test: cells
Assay type: functional, cell-based, Homo sapiens
Conditions: Homo sapiens, MEG-01
Description: SANGER: Inhibition of human MEG-01 cell growth in a cell viability assay.

Structure (SMILES) | IC50
Cc1cn(-c2cc(NC(=O)c3ccc(C)c(Nc4nccc(-c5cccnc5)n4)c3)cc(C(F)(F)F)c2)cn1 [NILOTINIB] | 8.28 nM

System: NCI-H1838;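 also: growth inhibition of NCI-H1838 cells, determined with a cell viability readout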
Test: cells
Assay type: functional, cell-based, Homo sapiens
Conditions: Homo sapiens, NCI-H1838
Description: SANGER: Inhibition of human NCI-H1838 cell growth in a cell viability assay.

Structure (SMILES) | IC50
Cc1cn(-c2cc(NC(=O)c3ccc(C)c(Nc4nccc(-c5cccnc5)n4)c3)cc(C(F)(F)F)c2)cn1 [NILOTINIB] | > 2000 nM

System: HCE-4;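 also: cell viability assay measuring inhibition of growth in the human HCE-4 cell line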
Test: cells
Assay type: functional, cell-based, Homo sapiens
Conditions: Homo sapiens, HCE-4
Description: SANGER: Inhibition of human HCE-4 cell growth in a cell viability assay.

Structure (SMILES) | IC50
Cc1cn(-c2cc(NC(=O)c3ccc(C)c(Nc4nccc(-c5cccnc5)n4)c3)cc(C(F)(F)F)c2)cn1 [NILOTINIB] | > 2000 nM

System: EKVX;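 also: growth inhibition of human EKVX cells, read out with a cell viability assay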
Test: cells
Assay type: functional, cell-based, Homo sapiens
Conditions: Homo sapiens, EKVX
Description: SANGER: Inhibition of human EKVX cell growth in a cell viability assay.

Structure (SMILES) | IC50
Cc1cn(-c2cc(NC(=O)c3ccc(C)c(Nc4nccc(-c5cccnc5)n4)c3)cc(C(F)(F)F)c2)cn1 [NILOTINIB] | > 2000 nM

System: IST-MES1;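 also: growth inhibition of IST-MES1 cells, measured with a cell viability assay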
Test: cells
Assay type: functional, cell-based, Homo sapiens
Conditions: Homo sapiens, IST-MES1
Description: SANGER: Inhibition of human IST-MES1 cell growth in a cell viability assay.

Structure (SMILES) | IC50
Cc1cn(-c2cc(NC(=O)c3ccc(C)c(Nc4nccc(-c5cccnc5)n4)c3)cc(C(F)(F)F)c2)cn1 [NILOTINIB] | > 2000 nM

System: HCC1187;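 also: growth inhibition of HCC1187 cells, read out with a cell viability assay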
Test: cells
Assay type: functional, cell-based, Homo sapiens
Conditions: Homo sapiens, HCC1187
Description: SANGER: Inhibition of human HCC1187 cell growth in a cell viability assay.

Structure (SMILES) | IC50
Cc1cn(-c2cc(NC(=O)c3ccc(C)c(Nc4nccc(-c5cccnc5)n4)c3)cc(C(F)(F)F)c2)cn1 [NILOTINIB] | > 2000 nM

System: HD-MY-Z;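 also: growth inhibition of HD-MY-Z cells, read out with a cell viability assay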
Test: cells
Assay type: functional, cell-based, Homo sapiens
Conditions: Homo sapiens, HD-MY-Z
Description: SANGER: Inhibition of human HD-MY-Z cell growth in a cell viability assay.

Structure (SMILES) | IC50
Cc1cn(-c2cc(NC(=O)c3ccc(C)c(Nc4nccc(-c5cccnc5)n4)c3)cc(C(F)(F)F)c2)cn1 [NILOTINIB] | > 2000 nM

System: OS-RC-2;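 also: growth inhibition of human OS-RC-2 cells, measured by a cell viability assay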
Test: cells
Assay type: functional, cell-based, Homo sapiens
Conditions: Homo sapiens, OS-RC-2
Description: SANGER: Inhibition of human OS-RC-2 cell growth in a cell viability assay.

Structure (SMILES) | IC50
Cc1cn(-c2cc(NC(=O)c3ccc(C)c(Nc4nccc(-c5cccnc5)n4)c3)cc(C(F)(F)F)c2)cn1 [NILOTINIB] | > 2000 nM

System: CW-2;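 also: growth inhibition of CW-2 cells, read out by a cell viability assay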
Test: cells
Assay type: functional, cell-based, Homo sapiens
Conditions: Homo sapiens, CW-2
Description: SANGER: Inhibition of human CW-2 cell growth in a cell viability assay.

Structure (SMILES) | IC50
Cc1cn(-c2cc(NC(=O)c3ccc(C)c(Nc4nccc(-c5cccnc5)n4)c3)cc(C(F)(F)F)c2)cn1 [NILOTINIB] | > 2000 nM

System: KM-H2;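 also: growth inhibition of KM-H2 cells, read out by a cell viability assay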
Test: cells
Assay type: functional, cell-based, Homo sapiens
Conditions: Homo sapiens, KM-H2
Description: SANGER: Inhibition of human KM-H2 cell growth in a cell viability assay.

Structure (SMILES) | IC50
Cc1cn(-c2cc(NC(=O)c3ccc(C)c(Nc4nccc(-c5cccnc5)n4)c3)cc(C(F)(F)F)c2)cn1 [NILOTINIB] | > 2000 nM

System: NCI-H209;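 also: growth inhibition of human NCI-H209 cells, measured by a cell viability assay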
Test: cells
Assay type: functional, cell-based, Homo sapiens
Conditions: Homo sapiens, NCI-H209
Description: SANGER: Inhibition of human NCI-H209 cell growth in a cell viability assay.

Structure (SMILES) | IC50
Cc1cn(-c2cc(NC(=O)c3ccc(C)c(Nc4nccc(-c5cccnc5)n4)c3)cc(C(F)(F)F)c2)cn1 [NILOTINIB] | > 2000 nM

System: NCI-H1155;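 also: cell growth inhibition measured by a viability assay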
Test: cells
Assay type: functional, cell-based, Homo sapiens
Conditions: Homo sapiens, NCI-H1155
Description: SANGER: Inhibition of human NCI-H1155 cell growth in a cell viability assay.

Structure (SMILES) | IC50
Cc1cn(-c2cc(NC(=O)c3ccc(C)c(Nc4nccc(-c5cccnc5)n4)c3)cc(C(F)(F)F)c2)cn1 [NILOTINIB] | > 2000 nM

System: PSN1;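 also: suppression of growth of human PSN1 cells, read out by a cell viability assay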
Test: cells
Assay type: functional, cell-based, Homo sapiens
Conditions: Homo sapiens, PSN1
Description: SANGER: Inhibition of human PSN1 cell growth in a cell viability assay.

Structure (SMILES) | IC50
Cc1cn(-c2cc(NC(=O)c3ccc(C)c(Nc4nccc(-c5cccnc5)n4)c3)cc(C(F)(F)F)c2)cn1 [NILOTINIB] | > 2000 nM

System: SF-539;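 also: Read-out is a cell viability assay, with IC50 reflecting inhibition of cell growth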
Test: cells
Assay type: functional, cell-based, Homo sapiens
Conditions: Homo sapiens, SF-539
Description: SANGER: Inhibition of human SF539 cell growth in a cell viability assay.

Structure (SMILES) | IC50
Cc1cn(-c2cc(NC(=O)c3ccc(C)c(Nc4nccc(-c5cccnc5)n4)c3)cc(C(F)(F)F)c2)cn1 [NILOTINIB] | > 2000 nM

System: COLO-320-HSR;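 also: growth inhibition of COLO-320-HSR cells, determined with a cell viability assay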
Test: cells
Assay type: functional, cell-based, Homo sapiens
Conditions: Homo sapiens, COLO-320-HSR
Description: SANGER: Inhibition of human COLO-320-HSR cell growth in a cell viability assay.

Structure (SMILES) | IC50
Cc1cn(-c2cc(NC(=O)c3ccc(C)c(Nc4nccc(-c5cccnc5)n4)c3)cc(C(F)(F)F)c2)cn1 [NILOTINIB] | > 2000 nM

System: SHP77;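 also: growth inhibition of human SHP-77 cells measured by a cell viability assay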
Test: cells
Assay type: functional, cell-based, Homo sapiens, SHP-77
Conditions: Homo sapiens, SHP77
Description: SANGER: Inhibition of human SHP-77 cell growth in a cell viability assay.

Structure (SMILES) | IC50
Cc1cn(-c2cc(NC(=O)c3ccc(C)c(Nc4nccc(-c5cccnc5)n4)c3)cc(C(F)(F)F)c2)cn1 [NILOTINIB] | > 2000 nM

System: HL-60;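 also: growth inhibition of human HL-60 cells, read out with a cell viability assay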
Test: cells
Assay type: functional, cell-based, Homo sapiens
Conditions: Homo sapiens, HL-60
Description: SANGER: Inhibition of human HL-60 cell growth in a cell viability assay.

Structure (SMILES) | IC50
Cc1cn(-c2cc(NC(=O)c3ccc(C)c(Nc4nccc(-c5cccnc5)n4)c3)cc(C(F)(F)F)c2)cn1 [NILOTINIB] | > 2000 nM

System: NCI-H23;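 also: cell viability assay measuring growth inhibition of NCI-H23 cells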
Test: cells
Assay type: functional, cell-based, Homo sapiens
Conditions: Homo sapiens, NCI-H23
Description: SANGER: Inhibition of human NCI-H23 cell growth in a cell viability assay.

Structure (SMILES) | IC50
Cc1cn(-c2cc(NC(=O)c3ccc(C)c(Nc4nccc(-c5cccnc5)n4)c3)cc(C(F)(F)F)c2)cn1 [NILOTINIB] | > 2000 nM

System: KE-37;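 also: growth inhibition of KE-37 cells, read out with a cell viability assay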
Test: cells
Assay type: functional, cell-based, Homo sapiens
Conditions: Homo sapiens, KE-37
Description: SANGER: Inhibition of human KE-37 cell growth in a cell viability assay.

Structure (SMILES) | IC50
Cc1cn(-c2cc(NC(=O)c3ccc(C)c(Nc4nccc(-c5cccnc5)n4)c3)cc(C(F)(F)F)c2)cn1 [NILOTINIB] | > 2000 nM
